Data on 1 compound can be found in patent publication US11440905B2, “Biheterocyclic compound” (SUMITOMO PHARMA CO., LTD., priority 2016, dated 2022).

The target of test [1] is T1, mouse semaphorin 3A (Sema3A) (Mus musculus, UniProt O08665).
T1 sequence (O08665 21-772): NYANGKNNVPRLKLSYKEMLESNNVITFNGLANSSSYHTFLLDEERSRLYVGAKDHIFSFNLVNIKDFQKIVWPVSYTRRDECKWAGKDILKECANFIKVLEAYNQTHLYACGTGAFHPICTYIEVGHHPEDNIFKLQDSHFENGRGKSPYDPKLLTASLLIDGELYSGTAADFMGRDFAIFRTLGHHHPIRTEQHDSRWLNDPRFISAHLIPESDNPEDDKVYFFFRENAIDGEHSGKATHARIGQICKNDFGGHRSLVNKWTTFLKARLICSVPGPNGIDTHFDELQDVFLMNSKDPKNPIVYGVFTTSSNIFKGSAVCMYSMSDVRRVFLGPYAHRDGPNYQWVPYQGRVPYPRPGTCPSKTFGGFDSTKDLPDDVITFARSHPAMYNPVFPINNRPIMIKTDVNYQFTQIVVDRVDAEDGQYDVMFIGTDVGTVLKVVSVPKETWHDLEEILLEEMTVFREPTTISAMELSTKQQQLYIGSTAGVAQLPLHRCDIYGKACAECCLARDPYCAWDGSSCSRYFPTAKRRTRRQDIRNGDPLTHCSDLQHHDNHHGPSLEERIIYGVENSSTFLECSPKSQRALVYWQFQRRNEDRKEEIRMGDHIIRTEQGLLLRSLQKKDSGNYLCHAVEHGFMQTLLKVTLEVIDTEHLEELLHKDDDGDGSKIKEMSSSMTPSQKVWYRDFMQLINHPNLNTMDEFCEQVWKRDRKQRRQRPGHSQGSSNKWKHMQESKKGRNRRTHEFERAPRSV
As to the kind of experiment: Inhibitory activity for the collapse activity caused by Sema3A (growth cone collapse assay, Test 1). In kind it is cell-based. Particulars: chick embryo dorsal root ganglion, 3 units/mL mouse Sema3A, smaller value = more potent inhibition, read-out: residual ratio (%) of Sema3A activity (collapse assay).

Test [2] concerns dry eye-model rat (exorbital lacrimal gland excised). Put plainly: Drug evaluation for corneal disorder in dry eye rat model (Test 5). In kind it is in vivo. Particulars: 0.01% to 1% ophthalmic solutions, 1 μL per shot, twice per day, 4 weeks; ** denotes p<0.01. As to the method: Drug Evaluation for Corneal Disorder in Dry Eye Rat Model
For the corneal disorder in the model rat whose exorbital lacrimal gland is excised, the drug effect was evaluated about hyaluronic acid (HA) which is an existing drug, and the present compound.
Male SD rat was anesthetized with inhalational isoflurane, and the exorbital lacrimal gland thereof was excised to prepare a dry eye-model rat (the conditions to prepare the dry eye-model rat can be changed as necessary, for example, by combining the excision of exorbital lacrimal gland with the medication of streptozotocin or the like). Three weeks after the operation, each vehicle for eye drop (typically phosphate-buffered saline (PBS)), and 0.01%, 0.1%, and 1% the ophthalmic solutions of the present compound (Example 19) were administered to the rat in an awareness at 1 μL per shot, twice per day, for 4 weeks.
The scoring of disorder extent in the site of corneal disorder was evaluated with 4 grades of the evaluation criteria of 0-3 according to Test 3.
The statistical significance for the drug effect was evaluated by nonparametric Tukey's multiple comparison test, in which the result of each test group was compared with that of the vehicle-administration group (PBS) in which the rat's exorbital lacrimal gland is excised.

Regarding `Cn1cc(-c2coc3cc(O)c(O)c(C(=O)OCC(=O)N[C@@H](CCC(=O)O)C(=O)O)c3c2=O)c(=O)c2cc(O)c(O)cc21` [Example 19, N-[({[3-(6,7-Dihydroxy-1-methyl-4-oxo-1,4-dihydroquinolin-3-yl)-6,7-dihydroxy-4-oxo-4H-chromen-5-yl]carbonyl}oxy)acetyl]-L-glutamic acid], the remaining activity at 1 µM in test [1] (1 μM test compound) turned out to be 4.2%. In addition, the remaining activity at 3 µM in test [1] (3 μM test compound) was found to be 0%. Also, the “improvement for corneal disorder (fluorescein staining score 0-3) vs vehicle-administration group (PBS)” value in test [2] is given as “marked improvement”.
